According to US6977264B2, “Substituted piperidines and methods of use” (Amgen Inc., priority 2001, dated 2005):
Structures can show the parent of a compound that is named as a salt.

melting point | SMILES
191 °C (dec.) | Cl.O=C(N[C@H](Cc1ccc(Cl)cc1)C(=O)N1CCC(c2ccccc2-n2cc[nH]c2=O)CC1)[C@@H]1Cc2ccccc2CN1
190 to 200 °C | CS(=O)(=O)N(CC1CC1)c1ccccc1C1CCN(C(=O)[C@@H](Cc2ccc(Cl)cc2)NC(=O)[C@@H]2Cc3ccccc3CN2)CC1 (as salt: HCl) (hydrate or solvate) [Example 11, N-[(1R)-1-[(4-Chlorophenyl)methyl]-2-(4-{2-[(cyclopropylmethyl)-(methylsulfonyl)amino]-phenyl}piperidyl)-2-oxoethyl]((3S)(3-1,2,3,4-tetrahydroisoquinolyl))carboxamide]
181 °C (dec.) | CS(=O)(=O)Nc1ccccc1C1CCN(C(=O)[C@@H](Cc2ccc(Cl)c(Cl)c2)NC(=O)[C@@H]2Cc3ccccc3CN2)CC1 (as salt: HCl) [Example 10, ((3S)(3-1,2,3,4-Tetrahydroisoquinolyl))-N-[(1R)-1-[(3,4-dichlorophenyl)methyl]-2-(4-{2-[(methylsulfonyl)-amino]phenyl}piperidyl)-2-oxoethyl]carboxamide]
178 °C (dec.) | Cn1ccn(-c2ccccc2C2CCN(C(=O)[C@@H](Cc3ccc(Cl)cc3)NC(=O)[C@@H]3Cc4ccccc4CN3)CC2)c1=O (as salt: HCl) [Example 17, ((3S)(3-1,2,3,4-Tetrahydroisoquinolyl))-N-((1R)-1-[(4-chlorophenyl)methyl]-2-{4-[2-(3-methyl-2-oxo(4-imidazolinyl))phenyl]piperidyl}-2-oxoethyl)carboxamide]
